Laboratory results: BigSolDB 2.1

c1ccc(CSSCc2ccccc2)cc1
Conditions | solubility (mole fraction)
in chloroform, 284.95 K | 0.102
in chloroform, 288.75 K | 0.131
in chloroform, 292.75 K | 0.16
in chloroform, 298.65 K | 0.208
in chloroform, 302.6 K | 0.246
in chloroform, 308.15 K | 0.291
in ethanol, 284.7 K | 0.000168
in ethanol, 289.45 K | 0.000398
in ethanol, 294.45 K | 0.000905
in ethanol, 299.55 K | 0.0019
in ethanol, 303.25 K | 0.00301
in ethanol, 308.25 K | 0.00524
in ethyl acetate, 285.55 K | 0.0332
in ethyl acetate, 289.95 K | 0.05
in ethyl acetate, 293.65 K | 0.0667
in ethyl acetate, 298.8 K | 0.0963
in ethyl acetate, 303.65 K | 0.131
in ethyl acetate, 308.4 K | 0.164
in n-hexane, 284.25 K | 0.000922
in n-hexane, 288.35 K | 0.0019
in n-hexane, 294.45 K | 0.00448
in n-hexane, 298.25 K | 0.00739
in n-hexane, 303.65 K | 0.0137
in n-hexane, 309.05 K | 0.0223
in toluene, 283.45 K | 0.0521
in toluene, 288.16 K | 0.0769
in toluene, 292.65 K | 0.103
in toluene, 299.35 K | 0.162
in toluene, 303.15 K | 0.198
in toluene, 308.65 K | 0.248
